A short description of data set [1]: Drug-drug interaction study with omeprazole (staggered approach), pharmacokinetics. To be noted: human, plasma, oral.
Procedure: The DDI study was a single-sequence, 2-period, open-label study to investigate the effects of an oral proton pump inhibitor (PPI) omeprazole (Helicid 40 mg capsules, Zentiva, k.s., Czech Republic) administered QD for 5 days on the pharmacokinetics (PK) of T when ingested 2 h prior to the last omeprazole dose (‘staggered approach’). All subjects received T alone in the first period and T under pre-treatment with omeprazole in the second period.
Subjects fasted for at least 10 h prior to dosing and no food was provided until 4 h after the dose, after which a standardized breakfast was served. […]
The plasma concentration-time profiles and pharmacokinetic parameters determined for dasatinib included maximum plasma concentration (Cmax), time to reach the maximum plasma concentration (Tmax), area under the plasma concentration-time curve from time zero to the time of the last quantifiable concentration (AUC0-t, measured by linear trapezoid method), AUC from time zero to infinity (AUC0-inf), terminal elimination half-life (thalf). The pharmacokinetic parameters were determined by non-compartmental methods using Phoenix WinNonlin, version 8.1 (Certara, USA).
Arithmetic mean and standard deviation were summarized for the main pharmacokinetic parameters. For Tmax, median and range were determined. […]
Data set [2] is described as follows: Intrinsic dissolution rate, rotation disk (Sirius inForm), acetate/phosphate buffer pH 4.5. To be noted: for intrinsic dissolution rate: acetate buffer pH 4.5, 37 °C, 100 rpm.
Data set [3] is described as follows: Bioavailability of anhydrous vs monohydrate form of dasatinib by gastric pH (data on file). It is filed as in vivo, human.
On the set-up of data set [4]: method as in PMID 19395585. To be noted: cited from earlier work.
The nature of data set [5]: Safety and tolerability, drug-drug interaction study (adverse events, CTC grade). It is filed as in vivo, human. To be noted: after dasatinib alone. On the procedure:
Safety was evaluated through assessment of adverse events, clinical and laboratory test results, physical examination, and concomitant medication usage.

For data set [6] the following is noted: cited from earlier work.
The subject of data set [7] is non-small-cell lung carcinoma. Also on record: method as in PMID 25246385. To be noted: cited from earlier work.
On the set-up of data set [8]: method as in PMID 15032311, PMID 15568890. To be noted: oral; cited from earlier work.
Where [9] appears, read: without PPI or H2-receptor antagonists.

Read-outs that look alike come from different tables or passages of the source.

The term Tmax denotes the time from dosing to the highest level. As a reminder, the solubility is how much of the substance goes into solution per volume.

In the case of `Cc1nc(Nc2ncc(C(=O)Nc3c(C)cccc3Cl)s2)cc(N2CCN(CCO)CC2)n1` [dasatinib anhydrate, dasatinib], the values for the Tmax in data set [1] and in data set [1] (110.6 mg) were 1.25 h and 0.83 h, respectively. Besides, the “fold higher intrinsic dissolution rate compared to monohydrate form” value in data set [2] (acetate buffer pH 4.5) is “more than 80 fold”. The intrinsic dissolution rate in data set [2] (listed as Anhydrous polymorph of dasatinib) is listed as 1606 mcg/min/cm^2. Further, the “fold difference in aqueous solubility compared with monohydrate form” value in data set [2] (pH of 4.5) is over 80 fold. For the same compound, the “increase of bioavailability compared with monohydrate form” value in data set [3] (normogastric population) is “approximately 20%”. For the same compound, in data set [3] (subjects with gastric pH >4 (data on file)), the “fold higher bioavailability compared with monohydrate form” value is given as “about 3.5 fold”.
Compound `Cc1nc(Nc2ncc(C(=O)Nc3c(C)cccc3Cl)s2)cc(N2CCN(CCO)CC2)n1` [dasatinib monohydrate, dasatinib] had an intrinsic dissolution rate in data set [2] (listed as monohydrate form) of 19 mcg/min/cm^2. Moreover, the solubility was 18400 µg/mL in data set [4] (pH 2.6), 205 µg/mL in data set [4] (pH 4.28) and under 1 µg/mL in data set [4] (pH 6.99).
In the case of `Cc1nc(Nc2ncc(C(=O)Nc3c(C)cccc3Cl)s2)cc(N2CCN(CCO)CC2)n1` [dasatinib], in data set [5] (CTC Grade 1), the “Chills, number of adverse effects” value is given as 1; the “Fever, number of adverse effects” value is reported as 0; the “Headache, number of adverse effects” value was 1; the “Nausea, number of adverse effects” value was 3. Also, in data set [5] (CTC Grade 1), the “Neck exanthema, number of adverse effects” value is 0; the “Palmar exanthema, number of adverse effects” value was 0; the “Vomiting, number of adverse effects” value was 1; the “Weakness, number of adverse effects” value was 2. Besides, in data set [5] (CTC Grade 2), the “Chills, number of adverse effects” value was found to be 0; the “Fever, number of adverse effects” value is listed as 1; the “Headache, number of adverse effects” value stood at 6; the “Nausea, number of adverse effects” value is recorded as 1. In addition, in data set [5] (CTC Grade 2), the “Neck exanthema, number of adverse effects” value is reported as 1; the “Palmar exanthema, number of adverse effects” value is listed as 1; the “Vomiting, number of adverse effects” value stood at 0; the “Weakness, number of adverse effects” value is 0. Moreover, the “decrease of AUC” value in data set [6] (co-administration of dexamethasone, according to the label) is “approximately 25%”. Besides, the AUC decrease in data set [6] (co-administration with antacids) is listed as ~ 55%. Besides, the “prevention of dasatinib AUC decrease induced by rabeprazole” value in data set [6] (co-administration with betaine hydrochloride) is listed as 78%. Also, the AUC decrease in data set [6] (co-administration with famotidine) was ~ 60%. In addition, the “reduction in dasatinib bioavailability” value in data set [6] (dasatinib administered 22 h after the last dose of the PPI) is over 40%.
Consider `C#Cc1cccc(Nc2ncnc3cc(OCCOC)c(OCCOC)cc23)c1` [erlotinib], for which the “median progression free survival” value in data set [7] (with co-administration of PPI or H2-receptor antagonists, p < 0.001) is given as 1.4 months; in data set [7] (setting [9]), 2.3 months. In addition, the median overall survival in data set [7] (with co-administration of PPI or H2-receptor antagonists, p = 0.003) is listed as 12.9 months; in data set [7] (setting [9]), 16.8 months.
Turning to `O=C1NC(=O)C(c2ccccc2)(c2ccccc2)N1` [phenytoin], the absolute bioavailability in data set [8] is reported as over 90%.

The record behind these values is article PMC10681895, “Dasatinib anhydrate containing oral formulation improves variability and bioavailability in humans” (Leukemia, 2023).
